A short description of test [1]: activation of miR-122 Renilla sensor silencing – cell-based, Huh7 psiCHECK-miR122, Renilla luciferase, cherry-picked, dose response (AID 651956).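 Note: huh7 hepatoma cells stably carrying a psiCHECK-2 miR-122 sensor plasmid; renilla luciferase signal reporting endogenous miR-122 activity after 48 h compound exposure.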 The class given is functional.
Test [2] is described as follows: viability of PTEN-deleted HCT116 cells – cell-based, HCT116 PTEN knockout, dose response (AID 1047).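 Note: HCT116 colon tumor cells with PTEN knocked out; cells exposed to compound for 60 hours before readout; potency for loss of cell viability measured by luminescence.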 The class given is functional.
In test [3] the target is Heat shock protein HSP 90-alpha (Homo sapiens, UniProt P07900). The format is functional, organism-based.
Test [4] concerns H9c2. The experiment in a line: cells. The settings on record: Rattus norvegicus, H9c2, Myocardium. The format is functional, cell-based.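 Note: confirmatory concentration-response retest of ultra-high-throughput screening hits for modulation of myocardial damage; cell death induced by hydrogen peroxide oxidative stress; compound pretreatment for 60 min then peroxide exposure for 2 h; potency is for protecting the cells against peroxide damage rather than for killing them.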
The target of test [5] is T1, Interleukin-8 (Homo sapiens, UniProt P10145).
T1 sequence (P10145 whole entry): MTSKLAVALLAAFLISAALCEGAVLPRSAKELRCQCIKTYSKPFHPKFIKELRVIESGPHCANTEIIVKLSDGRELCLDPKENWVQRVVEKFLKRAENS
The test can be described thus: Dose Response confirmation of uHTS small molecule hits for cystic fibrosis induced NFkb Inhibitors in a TNFa-induced IL8 counterscreen. The settings on record: read-out: IC50_Mean. The class given is functional. A general note: The purpose of a counterscreen is to sort out artefacts and off-target activity.

Test [6] concerns the target T1, Interleukin-8. The experiment in a line: Dose Response confirmation of uHTS small molecule hits for cystic fibrosis induced NFkb Inhibitors in a PAF-induced IL8 counterscreen. The format is functional. Conditions: read-out: IC50_Mean.
The nature of test [7]: viability of HCT116 lacking mutant beta-catenin – cell-based, human colon tumor, dose response (AID 1045).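 Note: HCT116 colon tumor cells with beta catenin knocked out; cells exposed to compound for 60 hours.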 The format is functional.
Test [8] addresses T2, High affinity choline transporter 1 (Homo sapiens, UniProt Q9GZV3).
T2 sequence (Q9GZV3 whole entry): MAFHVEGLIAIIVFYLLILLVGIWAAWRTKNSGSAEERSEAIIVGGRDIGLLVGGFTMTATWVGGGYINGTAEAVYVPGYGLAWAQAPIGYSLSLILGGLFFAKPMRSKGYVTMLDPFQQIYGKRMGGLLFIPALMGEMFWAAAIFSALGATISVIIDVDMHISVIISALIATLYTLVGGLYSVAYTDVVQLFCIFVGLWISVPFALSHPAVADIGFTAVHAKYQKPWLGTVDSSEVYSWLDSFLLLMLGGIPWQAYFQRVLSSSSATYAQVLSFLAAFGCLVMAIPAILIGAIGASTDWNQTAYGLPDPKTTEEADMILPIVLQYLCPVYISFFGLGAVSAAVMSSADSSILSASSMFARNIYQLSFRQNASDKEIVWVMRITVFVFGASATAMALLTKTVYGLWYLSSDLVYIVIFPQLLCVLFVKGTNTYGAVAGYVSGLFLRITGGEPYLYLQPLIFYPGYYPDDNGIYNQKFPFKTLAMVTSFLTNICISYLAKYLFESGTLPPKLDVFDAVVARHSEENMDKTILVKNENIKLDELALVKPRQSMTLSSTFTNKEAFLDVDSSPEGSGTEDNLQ
The experiment in a line: human choline transporter blockers, potency – cell-based, 10-point CRC, membrane potential dye, dose response (AID 588401).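 Note: membrane potential dye fluorescence of choline-evoked depolarization via CHT.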 The format is functional.

The target in test [9] is T3, DNA repair protein RAD52 homolog (Homo sapiens, UniProt P43351).
T3 sequence (P43351 whole entry): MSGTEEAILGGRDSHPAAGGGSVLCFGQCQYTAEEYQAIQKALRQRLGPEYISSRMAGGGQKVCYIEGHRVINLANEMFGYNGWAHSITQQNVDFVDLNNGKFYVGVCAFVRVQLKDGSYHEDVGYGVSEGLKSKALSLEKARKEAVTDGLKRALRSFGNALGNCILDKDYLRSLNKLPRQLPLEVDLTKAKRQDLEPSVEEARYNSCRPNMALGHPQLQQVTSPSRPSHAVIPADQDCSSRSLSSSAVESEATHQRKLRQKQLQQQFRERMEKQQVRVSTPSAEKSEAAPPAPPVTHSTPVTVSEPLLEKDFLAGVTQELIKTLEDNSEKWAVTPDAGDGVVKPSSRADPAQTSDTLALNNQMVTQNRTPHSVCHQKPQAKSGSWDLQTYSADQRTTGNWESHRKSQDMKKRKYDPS
The format is functional, biochemical.

In test [10] the target is T2, High affinity choline transporter 1. The test can be described thus: human choline transporter blockers, potency – cell-based, 5-point CRC, membrane potential dye, dose response (AID 504840). The class given is functional.
The nature of test [11]: Trypanosoma cruzi growth suppression in host cells – NIH3T3 host cells, beta-gal luminescence, confirmation (AID 2044).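 Note: intracellular parasites grown in NIH/3T3 mouse fibroblasts as host cells; luminescent beta-galactosidase reporter signal from transgenic T. cruzi replicating inside host cells; inhibitors lower the luminescence signal.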 The class given is functional, cell-based.
Test [12] addresses FAD-linked sulfhydryl oxidase ALR (Homo sapiens, UniProt P55789). The experiment in a line: ALR-catalysed DTT oxidation blockers – biochemical, H2O2 detection, luminescence, cherry-pick, dose response (AID 493248).
Test [13] concerns the target T4, Protein skinhead-1 (Caenorhabditis elegans, UniProt P34707).
T4 sequence (P34707 whole entry): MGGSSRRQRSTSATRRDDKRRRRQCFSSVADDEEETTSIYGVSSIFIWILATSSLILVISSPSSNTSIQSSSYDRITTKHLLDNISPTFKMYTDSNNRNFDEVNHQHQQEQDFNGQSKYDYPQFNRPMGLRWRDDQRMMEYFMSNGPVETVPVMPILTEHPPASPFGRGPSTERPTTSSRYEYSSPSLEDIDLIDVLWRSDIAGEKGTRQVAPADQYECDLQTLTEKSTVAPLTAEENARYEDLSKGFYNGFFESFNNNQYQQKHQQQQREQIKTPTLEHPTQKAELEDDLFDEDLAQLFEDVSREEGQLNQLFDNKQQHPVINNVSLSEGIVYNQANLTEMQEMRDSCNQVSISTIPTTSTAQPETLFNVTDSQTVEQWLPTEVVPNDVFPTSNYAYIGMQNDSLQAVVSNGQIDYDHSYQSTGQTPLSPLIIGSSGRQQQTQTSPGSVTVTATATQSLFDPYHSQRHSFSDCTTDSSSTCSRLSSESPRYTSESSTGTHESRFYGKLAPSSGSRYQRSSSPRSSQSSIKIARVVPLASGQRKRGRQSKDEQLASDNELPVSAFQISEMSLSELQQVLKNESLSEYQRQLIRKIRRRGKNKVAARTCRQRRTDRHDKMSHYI
The format is functional.

Test [14] addresses DNA repair and recombination protein RAD54-like (Homo sapiens, UniProt Q92698). The experiment in a line: RAD54 Holliday junction migration blockers – biochemical, fluorescence, cherry-picked samples, dose series, confirmation (AID 651657). The class given is functional.
Test [15] in a line: NIH3T3 cell viability loss – ATP luminescence, mouse fibroblasts, counter-screen, dose response (AID 2010).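 Note: cells exposed to compound for about 90 hours before reading.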 The format is functional, cell-based.
A short description of test [16]: mitochondrial function rescue without frataxin homolog – Friedreich's ataxia, plus single-dose screen, dose response (AID 1465).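 Note: yeast depleted of Yfh1p frataxin homolog grown on glycerol needing respiration; WST-1 tetrazolium dye reduction as measure of cellular dehydrogenase metabolic activity.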 The class given is functional.
Test [17] deals with Hepatocyte nuclear factor 4-alpha (Homo sapiens, UniProt P41235). The format is functional, cell-based.
The target in test [18] is Photoreceptor-specific nuclear receptor (Homo sapiens, UniProt Q9Y5X4). The format is functional, cell-based.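 Note: CHO-S cells with Gal4-NCOR and VP16-NR2E3 two-hybrid luciferase reporter.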
Test [19] has as its target Large T antigen (Simian virus 40, UniProt P03070). The class given is functional, Betapolyomavirus macacae.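 Note: Confirmatory-stage PubChem screen for compounds that inhibit SV40 T antigen.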
For test [20], the target named is T5, Sentrin-specific protease 1 (Homo sapiens, UniProt Q9P0U3).
T5 sequence (Q9P0U3 whole entry): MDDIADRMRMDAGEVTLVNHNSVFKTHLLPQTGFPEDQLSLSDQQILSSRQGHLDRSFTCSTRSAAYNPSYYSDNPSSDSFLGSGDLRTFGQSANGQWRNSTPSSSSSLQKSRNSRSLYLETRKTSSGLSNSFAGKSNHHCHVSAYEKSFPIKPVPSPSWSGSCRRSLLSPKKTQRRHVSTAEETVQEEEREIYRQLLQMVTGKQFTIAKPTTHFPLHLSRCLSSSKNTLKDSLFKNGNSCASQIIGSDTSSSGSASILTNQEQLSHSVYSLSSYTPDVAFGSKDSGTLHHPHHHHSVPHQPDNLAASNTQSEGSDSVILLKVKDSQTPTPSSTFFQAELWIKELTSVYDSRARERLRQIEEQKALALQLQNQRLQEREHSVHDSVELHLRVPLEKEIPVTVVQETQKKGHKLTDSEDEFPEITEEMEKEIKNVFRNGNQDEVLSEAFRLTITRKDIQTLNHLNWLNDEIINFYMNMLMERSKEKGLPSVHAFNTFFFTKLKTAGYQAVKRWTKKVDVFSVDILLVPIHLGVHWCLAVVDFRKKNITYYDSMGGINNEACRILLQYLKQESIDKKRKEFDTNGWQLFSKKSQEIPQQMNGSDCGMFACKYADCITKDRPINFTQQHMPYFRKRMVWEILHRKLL
The experiment in a line: Dose response confirmation of small molecule inhibitors of the catalytic domain of the SUMO protease, SENP1 in a FRET assay. The class given is functional. The settings on record: read-out: IC50_Mean.

Test [21] has as its target T5, Sentrin-specific protease 1. The experiment in a line: SENP1 catalytic domain blockers, concentration series – biochemical, kinetic FRET, dose response (AID 651697). The class given is functional. Conditions: read-out: IC50_Mean.
The nature of test [22]: bead-based luminescence quenchers, dual-tagged ARNT – biochemical, AlphaScreen, cherry-pick, artefact control for ARNT-TACC3 interaction inhibitor project, dose response (AID 651705).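 Note: AlphaScreen bead proximity signal that flags compounds interfering with the detection technology; potency reflects signal decrease which marks the compound as an assay artifact.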 The format is functional. On the technique in general: In Alpha technology, singlet oxygen from a donor bead excites a nearby acceptor bead.
Test [23] concerns the target Beta Lactamase (Pseudomonas aeruginosa, UniProt Q932Y6). The experiment in a line: BLA reporter interference, concentration series – BLA reporter cells, FRET fluorescence, artefact control for NOD2-RIPK2 interaction inhibitor project, dose response (AID 651552). The format is functional, cell-based.
Test [24] can be described thus: Fluorescence-based cell-based high throughput dose response assay for inhibitors of the interaction of nucleotide-binding oligomerization domain containing 2 (NOD2) and the receptor-interacting serine-threonine kinase 2 (RIPK2). The settings on record: Homo sapiens. The format is functional.
Test [25] has as its target Melanocortin receptor 4 (Homo sapiens, UniProt P32245). The format is functional, cell-based.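 Note: Cell-based assay with luminescence read-out, confirmatory dose-response testing for agonist activity of biased ligands at MC4R; human U2OS cells with tagged receptor and beta-arrestin; potency of agonists that increase receptor coupling to beta-arrestin.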
Test [26] addresses Ras and Rab interactor 1/Tyrosine-protein kinase ABL1 (Homo sapiens, UniProt P00519+Q13671). The class given is functional.

The structures appear in SMILES notation. Activity calls are given as the source filed them.

Chain of DNA repair and recombination protein RAD54-like (Q92698 whole entry): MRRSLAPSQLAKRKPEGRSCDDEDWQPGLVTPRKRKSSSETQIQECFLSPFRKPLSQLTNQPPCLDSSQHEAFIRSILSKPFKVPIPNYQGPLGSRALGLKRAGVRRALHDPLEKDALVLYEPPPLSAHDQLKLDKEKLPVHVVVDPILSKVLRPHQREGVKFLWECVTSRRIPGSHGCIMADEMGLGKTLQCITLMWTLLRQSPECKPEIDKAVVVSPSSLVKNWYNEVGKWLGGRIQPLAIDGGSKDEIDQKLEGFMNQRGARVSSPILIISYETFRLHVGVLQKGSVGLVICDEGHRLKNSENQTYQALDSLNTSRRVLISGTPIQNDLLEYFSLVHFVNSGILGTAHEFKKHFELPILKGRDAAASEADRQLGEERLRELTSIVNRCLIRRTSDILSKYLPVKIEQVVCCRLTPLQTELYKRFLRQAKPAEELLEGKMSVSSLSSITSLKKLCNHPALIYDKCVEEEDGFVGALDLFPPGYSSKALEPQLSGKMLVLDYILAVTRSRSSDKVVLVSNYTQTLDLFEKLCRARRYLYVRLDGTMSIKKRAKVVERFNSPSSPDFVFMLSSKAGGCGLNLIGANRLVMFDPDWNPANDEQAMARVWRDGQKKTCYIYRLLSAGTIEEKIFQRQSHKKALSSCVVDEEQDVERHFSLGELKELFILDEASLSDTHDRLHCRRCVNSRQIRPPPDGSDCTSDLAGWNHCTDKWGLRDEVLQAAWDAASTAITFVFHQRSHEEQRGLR
Chain of FAD-linked sulfhydryl oxidase ALR (P55789 whole entry): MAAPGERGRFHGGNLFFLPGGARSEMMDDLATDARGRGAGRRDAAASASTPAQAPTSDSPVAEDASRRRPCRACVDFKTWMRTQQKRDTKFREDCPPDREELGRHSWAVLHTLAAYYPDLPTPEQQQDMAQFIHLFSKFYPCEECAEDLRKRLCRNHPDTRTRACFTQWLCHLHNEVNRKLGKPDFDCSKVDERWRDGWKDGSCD
Chain of Hepatocyte nuclear factor 4-alpha (P41235 whole entry, the tested form may be a part): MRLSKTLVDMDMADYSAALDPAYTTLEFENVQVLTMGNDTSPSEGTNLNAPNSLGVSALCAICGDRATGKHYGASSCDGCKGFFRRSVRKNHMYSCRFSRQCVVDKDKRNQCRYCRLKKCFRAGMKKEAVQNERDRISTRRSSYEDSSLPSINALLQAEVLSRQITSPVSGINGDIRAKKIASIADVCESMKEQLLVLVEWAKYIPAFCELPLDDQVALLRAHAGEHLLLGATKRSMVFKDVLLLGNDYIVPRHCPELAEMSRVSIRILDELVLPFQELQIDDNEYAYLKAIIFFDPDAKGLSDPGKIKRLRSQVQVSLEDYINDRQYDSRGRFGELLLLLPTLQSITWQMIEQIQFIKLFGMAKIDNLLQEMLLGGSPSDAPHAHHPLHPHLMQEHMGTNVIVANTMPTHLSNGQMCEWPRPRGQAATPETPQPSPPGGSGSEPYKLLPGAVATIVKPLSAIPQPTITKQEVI
Chain of Photoreceptor-specific nuclear receptor (Q9Y5X4 whole entry, the tested form may be a part): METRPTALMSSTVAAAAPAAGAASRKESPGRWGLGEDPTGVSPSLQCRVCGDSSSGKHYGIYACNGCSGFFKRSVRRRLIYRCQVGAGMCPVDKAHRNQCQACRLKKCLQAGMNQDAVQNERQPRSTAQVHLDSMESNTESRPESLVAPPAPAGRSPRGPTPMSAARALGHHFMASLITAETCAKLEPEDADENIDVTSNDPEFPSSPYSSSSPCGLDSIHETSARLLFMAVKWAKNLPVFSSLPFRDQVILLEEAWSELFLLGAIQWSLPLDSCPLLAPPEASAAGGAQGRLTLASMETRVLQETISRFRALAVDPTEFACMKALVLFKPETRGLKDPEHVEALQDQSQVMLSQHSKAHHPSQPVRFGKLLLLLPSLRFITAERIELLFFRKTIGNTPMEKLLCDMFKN
Chain of Large T antigen (P03070 whole entry): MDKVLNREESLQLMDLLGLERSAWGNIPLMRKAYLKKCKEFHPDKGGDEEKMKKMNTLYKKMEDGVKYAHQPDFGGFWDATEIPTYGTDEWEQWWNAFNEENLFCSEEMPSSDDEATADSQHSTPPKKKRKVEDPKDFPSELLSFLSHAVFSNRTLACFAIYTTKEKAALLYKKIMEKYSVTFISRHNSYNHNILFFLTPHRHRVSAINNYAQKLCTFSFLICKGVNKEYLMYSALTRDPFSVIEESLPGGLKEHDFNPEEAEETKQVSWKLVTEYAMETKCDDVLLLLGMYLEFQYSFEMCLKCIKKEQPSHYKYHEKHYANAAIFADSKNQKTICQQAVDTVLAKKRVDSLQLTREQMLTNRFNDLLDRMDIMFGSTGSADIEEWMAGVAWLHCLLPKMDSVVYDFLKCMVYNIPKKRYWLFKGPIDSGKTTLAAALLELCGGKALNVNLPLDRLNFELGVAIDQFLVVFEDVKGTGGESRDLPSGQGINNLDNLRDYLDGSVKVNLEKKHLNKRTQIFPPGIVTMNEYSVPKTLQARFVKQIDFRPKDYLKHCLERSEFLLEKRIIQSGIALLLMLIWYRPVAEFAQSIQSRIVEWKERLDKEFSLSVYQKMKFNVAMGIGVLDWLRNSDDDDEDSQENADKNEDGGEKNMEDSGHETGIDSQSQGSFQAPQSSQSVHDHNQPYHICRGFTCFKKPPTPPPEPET
Chain of Melanocortin receptor 4 (P32245 whole entry): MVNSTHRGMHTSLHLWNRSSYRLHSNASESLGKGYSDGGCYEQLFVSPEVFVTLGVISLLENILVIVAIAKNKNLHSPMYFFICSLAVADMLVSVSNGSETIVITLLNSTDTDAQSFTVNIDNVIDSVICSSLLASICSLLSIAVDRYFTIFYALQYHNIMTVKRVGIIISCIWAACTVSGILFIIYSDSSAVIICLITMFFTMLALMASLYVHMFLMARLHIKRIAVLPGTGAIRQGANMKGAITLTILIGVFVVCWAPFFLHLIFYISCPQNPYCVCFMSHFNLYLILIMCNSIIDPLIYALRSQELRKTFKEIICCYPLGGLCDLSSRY
Chain of Ras and Rab interactor 1/Tyrosine-protein kinase ABL1 (P00519 whole entry): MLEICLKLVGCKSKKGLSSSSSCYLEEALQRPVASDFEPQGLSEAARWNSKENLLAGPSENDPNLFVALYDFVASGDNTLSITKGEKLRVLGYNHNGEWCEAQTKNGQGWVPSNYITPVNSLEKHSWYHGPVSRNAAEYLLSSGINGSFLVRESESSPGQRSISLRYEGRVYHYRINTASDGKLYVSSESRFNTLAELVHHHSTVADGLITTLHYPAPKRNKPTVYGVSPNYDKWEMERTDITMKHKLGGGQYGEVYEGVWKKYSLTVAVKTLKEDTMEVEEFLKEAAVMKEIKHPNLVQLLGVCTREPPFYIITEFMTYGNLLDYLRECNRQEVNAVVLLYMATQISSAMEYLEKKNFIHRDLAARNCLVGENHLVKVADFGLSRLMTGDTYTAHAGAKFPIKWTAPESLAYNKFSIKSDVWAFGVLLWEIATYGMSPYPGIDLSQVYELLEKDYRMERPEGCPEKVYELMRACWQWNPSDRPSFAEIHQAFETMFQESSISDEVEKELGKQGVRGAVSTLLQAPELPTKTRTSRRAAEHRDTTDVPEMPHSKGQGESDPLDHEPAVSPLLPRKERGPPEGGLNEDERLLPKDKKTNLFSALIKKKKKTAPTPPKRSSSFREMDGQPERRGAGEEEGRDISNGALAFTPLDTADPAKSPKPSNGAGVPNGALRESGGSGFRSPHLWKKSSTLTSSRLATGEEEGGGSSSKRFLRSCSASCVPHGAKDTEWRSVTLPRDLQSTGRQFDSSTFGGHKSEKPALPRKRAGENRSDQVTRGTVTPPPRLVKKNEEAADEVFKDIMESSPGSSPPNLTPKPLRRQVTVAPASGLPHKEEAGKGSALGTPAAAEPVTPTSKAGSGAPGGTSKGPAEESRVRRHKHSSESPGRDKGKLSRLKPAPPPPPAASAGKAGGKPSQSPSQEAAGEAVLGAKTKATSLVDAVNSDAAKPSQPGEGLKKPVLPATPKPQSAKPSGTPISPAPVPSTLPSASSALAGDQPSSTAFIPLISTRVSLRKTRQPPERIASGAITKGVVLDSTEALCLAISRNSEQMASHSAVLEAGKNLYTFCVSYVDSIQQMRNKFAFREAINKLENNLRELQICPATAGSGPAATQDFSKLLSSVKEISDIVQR
Chain of Ras and Rab interactor 1/Tyrosine-protein kinase ABL1 (Q13671 whole entry): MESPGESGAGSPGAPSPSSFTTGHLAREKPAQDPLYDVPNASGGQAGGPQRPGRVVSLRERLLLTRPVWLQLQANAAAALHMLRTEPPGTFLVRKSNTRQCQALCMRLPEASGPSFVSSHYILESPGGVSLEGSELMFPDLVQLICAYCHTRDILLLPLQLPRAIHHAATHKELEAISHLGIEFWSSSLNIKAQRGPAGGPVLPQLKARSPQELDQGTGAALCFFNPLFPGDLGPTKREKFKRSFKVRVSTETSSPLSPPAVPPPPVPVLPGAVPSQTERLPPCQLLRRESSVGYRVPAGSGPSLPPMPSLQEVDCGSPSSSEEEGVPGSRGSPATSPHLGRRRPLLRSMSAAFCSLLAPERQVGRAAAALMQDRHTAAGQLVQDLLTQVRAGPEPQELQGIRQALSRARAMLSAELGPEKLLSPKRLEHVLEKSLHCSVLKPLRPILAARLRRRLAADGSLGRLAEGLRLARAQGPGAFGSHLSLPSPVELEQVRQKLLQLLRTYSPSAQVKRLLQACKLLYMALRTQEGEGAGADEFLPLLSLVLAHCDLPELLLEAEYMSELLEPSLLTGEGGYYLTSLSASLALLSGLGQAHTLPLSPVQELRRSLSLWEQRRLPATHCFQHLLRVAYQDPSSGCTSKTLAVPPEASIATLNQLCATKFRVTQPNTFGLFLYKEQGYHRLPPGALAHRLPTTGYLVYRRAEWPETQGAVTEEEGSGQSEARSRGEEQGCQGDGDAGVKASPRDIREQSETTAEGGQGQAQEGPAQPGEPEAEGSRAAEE

Broadly, the AC50 is the midpoint of the concentration-response curve, whichever way the signal moves. In the case of `C[C@@H]1CN([C@H](C)CO)S(=O)(=O)c2ccc(C3=CCCC3)cc2O[C@@H]1CN(C)C(=O)c1cnccn1`, in test [1], the AC50 is 13.5 µM (active).
As usually defined, the EC50 is the concentration giving half of the maximal effect. In the case of `CCOc1ccc(NCc2cc3c(C(C)(C)C)nn(-c4ccccc4)c3nc2O)cc1`, the EC50 in test [2] was 9.36 µM (active); in test [7] it was 13.5 µM (active). The AC50 in [3] was 8.84 µM (active). Moreover, the IC50 is 24.2 µM (active) in [4], > 79 µM (inactive) in [5] and 0.628 µM (active) in test [6].
For `C[N+]1(C)CCOC(O)(c2ccc(-c3ccc(C4(O)C[N+](C)(C)CCO4)cc3)cc2)C1` (stereo not given), the IC50 in [8] is 0.127 µM (active); in test [10], 0.296 µM (active). The AC50 in [9] was 7.78 µM (active).
As for `Oc1cccc(Nc2c3ccccc3nc3ccccc23)c1`, the values for the AC50 in test [9], in test [12] and in test [14] were 3.09 µM (active), 2.66 µM (active) and 4.49 µM (active), respectively. Further, the figures for the concentration giving a half-maximal response (EC50) in test [11] and in [15] were 0.672 µM (active) and 21.8 µM (active), respectively. For the same compound, the IC50 in [13] is > 100 µM (inactive).
On to `Sc1nnc(-c2ccncc2)n1/N=C/C(Cl)=C\c1ccccc1`, for which the IC50 is > 79 µM (inactive) in test [5] and 3.4 µM (active) in test [6]. Also, in test [16], the half-maximal effective concentration (EC50) was > 100 µM (active).
For the compound `Cc1ccc(C(C)NC(=O)C2CCCC2)cc1C` (stereo not given), the IC50 in test [8] was 6.48 µM (active); in test [10] it was 8.58 µM (active).
In the case of `O=C(/C=C/c1ccc2c(c1)OCCCO2)c1ccccc1O`, in [17], the IC50 is 5.6 µM (active).
Consider `Cc1ccc(S(=O)(=O)N2[C@@H](c3ccc(Cl)cc3)C(C(=O)O)=CC[C@H]2c2ccc(C(C)C)cc2)cc1`, for which the IC50 was 5.56 µM (active) in test [18] and 60.4 µM (active) in [19]. For the same compound, in test [12], the AC50 was 10.3 µM (active).
On to `COc1cccc(-c2nc(SC)nc3sc(C(=O)NC(C)(C)C)c(N)c23)c1`, for which the figures for the IC50 in test [20] and in [21] were 15.2 µM (active) and 19.1 µM (active), respectively.
Consider `O=C(COc1nsnc1N1CCOCC1)N/N=C/c1ccccc1O`, for which the EC50 was 28.5 µM (active) in test [2] and 23.7 µM (active) in test [7]. In addition, the AC50 in test [22] is 107 µM (active).
Consider `Cc1ccc(-n2ncc(C(=O)Nc3cc(Cl)ccc3C)c2C2CCNCC2)cc1C`, for which, in test [1], the AC50 is 51.5 µM (active).
Consider `CCCCCN1C(=O)c2cc(OC)ccc2[C@@]2(C(=O)OCC)Cc3cc(Cl)ccc3[C@@H]12`, for which the IC50 in test [23] is 18.8 µM (inactive); in test [24] it was 2.04 µM (active).
Turning to `COc1ncccc1-c1cc2nc(NCCCN(C)C)n(C)c(=O)c2s1`, the results for the AC50 in [9] and in [14] were 4.91 µM (active) and 12.9 µM (active), respectively.
Regarding `Cc1ccc(O)c(C(=O)/C=C/c2ccc3c(c2)OCCCO3)c1`, in test [17], the IC50 was 6.11 µM (active). Also, the EC50 in test [25] was > 89.2 µM (inactive).
Turning to `O=C(O)CN1C(=O)S/C(=C2/C(=O)Nc3ccccc32)C1=O`, the IC50 in test [20] is 3.7 µM (active); in test [21], 13.7 µM (active).
With `Oc1nccc(N/N=C/c2ccccc2)n1`, the IC50 in [26] was > 73.5 µM (inactive).

Source of the values: ChEMBL document CHEMBL1201862, “PubChem BioAssay data set” (2004).
